Calls of active or inactive are those of the source. The rule behind the calls is not given here.
Assays:
[1] = Plasma protein binding in human; type: ADME, cell-free; settings: read-out: PPB (converted)
[2] = Stability in mouse plasma assessed as compound remaining incubated for 4 hrs; type: ADME, cell-free; settings: read-out: Stability
Cytochrome P450 3A4 = Cytochrome P450 3A4 (Homo sapiens, UniProt P08684); experiment: Inhibition of CYP3A4 in human liver microsome; type: ADME, microsomes
[3] = Cytotoxicity in HFL1 cells; type: toxicity, cell-based; settings: human
[4] = molecular target: Core antigen (Hepatitis B virus) (UniProt Q03732); experiment: Binding affinity to HBV core protein dimers extracted from Escherichia coli assessed as clump formation of assembled capsids by negative staining electron microscopic analysis
Chain of Core antigen (Hepatitis B virus) (Q03732 as listed by the source): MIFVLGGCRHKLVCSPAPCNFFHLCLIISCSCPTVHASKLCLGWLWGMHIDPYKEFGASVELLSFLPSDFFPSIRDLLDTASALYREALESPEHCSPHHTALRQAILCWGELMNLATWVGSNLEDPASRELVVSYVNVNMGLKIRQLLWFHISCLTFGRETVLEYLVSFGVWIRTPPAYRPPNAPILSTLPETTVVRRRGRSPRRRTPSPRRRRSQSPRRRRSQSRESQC

[5] = Cmax in male mouse at 20 mg/kg, po; type: ADME, organism-based; settings: in vivo
[6] = Tmax in male mouse at 5 mg/kg, po; type: ADME, organism-based; settings: in vivo
[7] = Cytotoxicity in mouse L929 cells; type: toxicity, cell-based
[8] = Cytotoxicity in African green monkey Vero cells; type: toxicity, cell-based, Chlorocebus sabaeus
Hepatitis B virus [9] = experiment: Antiviral activity against HBV infected in human HepG2 cells expressing NTCP assessed as fold reduction in capsid associated viral DNA level at 1 uM incubated for 6 days by Southern blot analysis relative to control; type: functional; settings: time 6 day
Cytochrome P450 1A2 = molecular target: T1, Cytochrome P450 1A2 (Homo sapiens, UniProt P05177); experiment: Inhibition of CYP1A2 in human liver microsome; type: ADME, microsomes
T1 sequence (P05177 whole entry): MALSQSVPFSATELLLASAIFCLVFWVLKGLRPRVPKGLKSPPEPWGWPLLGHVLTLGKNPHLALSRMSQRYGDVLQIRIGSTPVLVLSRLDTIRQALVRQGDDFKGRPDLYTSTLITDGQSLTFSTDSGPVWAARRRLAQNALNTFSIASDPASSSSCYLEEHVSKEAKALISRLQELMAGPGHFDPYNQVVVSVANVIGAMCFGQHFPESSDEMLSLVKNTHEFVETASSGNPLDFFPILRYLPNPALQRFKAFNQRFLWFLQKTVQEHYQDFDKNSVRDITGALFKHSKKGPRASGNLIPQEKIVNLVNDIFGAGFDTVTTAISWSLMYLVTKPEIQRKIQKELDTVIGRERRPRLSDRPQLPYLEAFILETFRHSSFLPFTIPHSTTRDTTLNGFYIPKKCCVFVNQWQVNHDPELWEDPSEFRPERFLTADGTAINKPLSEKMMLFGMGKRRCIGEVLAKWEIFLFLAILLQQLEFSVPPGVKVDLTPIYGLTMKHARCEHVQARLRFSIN

[10] = Oral bioavailability in male mouse at 5 mg/kg; type: ADME, organism-based; settings: in vivo
[11] = Cytotoxicity in mouse NIH3T3 cells; type: toxicity, cell-based
[12] = Selectivity index, ratio of CC50 for cytotoxicity in human HepG2.2.15 cells assessed as reduction in cell viability to EC50 for antiviral activity against HBV in human HepG2.2.15 cells assessed as reduction in viral replication; type: toxicity, cell-based; settings: read-out: Ratio CC50/EC50
[13] = Half life in male mouse at 20 mg/kg, po; type: ADME, organism-based; settings: in vivo
[14] = Metabolic stability in mouse liver microsomes assessed as compound remaining measured after 30 mins; type: ADME, Microsome; settings: read-out: Stability
[15] = Metabolic stability in rat liver microsomes assessed as compound remaining measured after 30 mins; type: ADME, Microsome; settings: read-out: Stability
[16] = Half life in male mouse at 20 mg/kg, iv; type: ADME, organism-based; settings: in vivo
[17] = AUC (0 to infinity) in male mouse at 20 mg/kg, iv; type: ADME, organism-based; settings: in vivo
[18] = Volume of distribution at steady state in male mouse at 20 mg/kg, iv; type: ADME, organism-based; settings: in vivo, read-out: Vdss
[19] = AUC (0 to infinity) in male mouse at 20 mg/kg, po; type: ADME, organism-based; settings: in vivo
[20] = Cytotoxicity in human HepaRG cells assessed as reduction in cell viability; type: toxicity, cell-based
[21] = Cytotoxicity in CHO-K1 cells; type: toxicity, cell-based, Cricetulus griseus; settings: Chinese hamster
[22] = Plasma protein binding in mouse; type: ADME, cell-free; settings: read-out: PPB (converted)
Hepatitis B virus [23] = experiment: Antiviral activity against HBV infected in human HepG2 cells expressing NTCP assessed as ratio of capsid associated HBV DNA level at 1 uM incubated for 6 days by Western blot analysis (reference value: 100 %); type: functional; settings: time 6 day
Cytochrome P450 2D6 = Cytochrome P450 2D6 (Homo sapiens, UniProt P10635); experiment: Inhibition of CYP2D6 in human liver microsome; type: ADME, microsomes
Chain of Cytochrome P450 2D6 (P10635 whole entry): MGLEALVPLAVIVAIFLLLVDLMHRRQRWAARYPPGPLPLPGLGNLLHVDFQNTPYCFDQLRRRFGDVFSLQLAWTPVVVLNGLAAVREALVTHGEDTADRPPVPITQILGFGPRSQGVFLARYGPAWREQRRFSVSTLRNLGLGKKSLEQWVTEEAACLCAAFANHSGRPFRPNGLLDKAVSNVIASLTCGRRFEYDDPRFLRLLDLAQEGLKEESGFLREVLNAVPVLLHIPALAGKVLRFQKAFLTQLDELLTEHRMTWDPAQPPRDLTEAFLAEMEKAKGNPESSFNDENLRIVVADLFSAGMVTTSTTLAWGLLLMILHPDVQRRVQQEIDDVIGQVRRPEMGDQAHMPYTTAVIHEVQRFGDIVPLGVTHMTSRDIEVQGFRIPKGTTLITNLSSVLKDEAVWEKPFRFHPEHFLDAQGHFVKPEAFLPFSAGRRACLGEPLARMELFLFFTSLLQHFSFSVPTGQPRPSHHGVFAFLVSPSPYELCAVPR

Hepatitis B virus [24] = experiment: Antiviral activity against HBV in human HepG2 cells expressing NTCP assessed as reduction in viral replication; type: functional, organism-based
[25] = AUClast in male mouse at 5 mg/kg, po; type: ADME, organism-based; settings: in vivo
[26] = Oral bioavailability in male mouse at 20 mg/kg; type: ADME, organism-based; settings: in vivo
[27] = Half life in male mouse at 5 mg/kg, po; type: ADME, organism-based; settings: in vivo
[28] = molecular target: Core antigen (Hepatitis B virus) (UniProt Q03732); experiment: Binding affinity to HBV core protein dimers extracted from Escherichia coli assessed as retention volume at peak of capsid assembly by size exclusion chromatography (reference value: 8.63 mL)
Cytochrome P450 2C19 = Cytochrome P450 2C19 (Homo sapiens, UniProt P33261); experiment: Inhibition of CYP2C19 in human liver microsome; type: ADME, microsomes
Chain of Cytochrome P450 2C19 (P33261 whole entry): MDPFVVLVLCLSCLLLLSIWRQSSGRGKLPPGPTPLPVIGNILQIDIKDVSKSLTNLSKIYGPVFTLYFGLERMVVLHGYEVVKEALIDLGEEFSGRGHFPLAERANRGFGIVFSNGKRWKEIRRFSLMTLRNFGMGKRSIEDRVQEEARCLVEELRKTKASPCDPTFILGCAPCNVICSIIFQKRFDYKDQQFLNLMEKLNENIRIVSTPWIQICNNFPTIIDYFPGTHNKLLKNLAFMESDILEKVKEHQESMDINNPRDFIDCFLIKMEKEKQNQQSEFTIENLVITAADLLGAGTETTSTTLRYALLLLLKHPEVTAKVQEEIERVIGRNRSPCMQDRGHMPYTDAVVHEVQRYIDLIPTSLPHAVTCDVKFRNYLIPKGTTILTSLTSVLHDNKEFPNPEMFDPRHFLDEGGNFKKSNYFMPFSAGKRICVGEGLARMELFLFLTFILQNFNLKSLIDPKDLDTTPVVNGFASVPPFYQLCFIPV

Hepatitis B virus [29] = experiment: Antiviral activity against HBV infected in human HepG2 cells expressing NTCP assessed as capsid associated HBV DNA level at 1 uM incubated for 6 days by Western blot analysis (reference value: 100 %); type: functional; settings: time 6 day
HepG2 = experiment: Effect on viral rcDNA level in human HepG2 cells expressing NTCP infected with HBV at 1 uM incubated for 6 days by Southern blot analysis; type: functional, cell-based; settings: time 6.0 day
[30] = Half life in male mouse at 5 mg/kg, iv; type: ADME, organism-based; settings: in vivo
[31] = Cytotoxicity in human HepG2.2.15 cells assessed as reduction in cell viability; type: toxicity, cell-based, HepG2 2.2.15
[32] = Clearance in male mouse at 20 mg/kg, iv; type: ADME, organism-based; settings: in vivo
[33] = AUClast in male mouse at 5 mg/kg, iv; type: ADME, organism-based; settings: in vivo
[34] = Metabolic stability in human liver microsomes assessed as compound remaining measured after 30 mins; type: ADME, Microsome; settings: read-out: Stability
[35] = AUC (0 to infinity) in male mouse at 5 mg/kg, iv; type: ADME, organism-based; settings: in vivo
[36] = Selectivity index, ratio of CC50 for cytotoxicity in human HepG2-hNTCP cells assessed as reduction in cell viability to EC50 for antiviral activity against HBV in human HepG2-hNTCP cells assessed as reduction in viral replication; type: toxicity, cell-based; settings: read-out: Ratio CC50/EC50
[37] = Cytotoxicity in human HepG2-hNTCP cells assessed as reduction in cell viability; type: toxicity, cell-based
[38] = Clearance in male mouse at 5 mg/kg, iv; type: ADME, organism-based; settings: in vivo
[39] = Volume of distribution at steady state in male mouse at 5 mg/kg, iv; type: ADME, organism-based; settings: in vivo, read-out: Vdss
Hepatitis B virus [40] = experiment: Antiviral activity against HBV in human HepaRG cells assessed as reduction in viral replication; type: functional, organism-based
[41] = Cmax in male mouse at 5 mg/kg, po; type: ADME, organism-based; settings: in vivo
Cytochrome P450 2C9 = Cytochrome P450 2C9 (Homo sapiens, UniProt P11712); experiment: Inhibition of CYP2C9 in human liver microsome; type: ADME, microsomes
Chain of Cytochrome P450 2C9 (P11712 whole entry): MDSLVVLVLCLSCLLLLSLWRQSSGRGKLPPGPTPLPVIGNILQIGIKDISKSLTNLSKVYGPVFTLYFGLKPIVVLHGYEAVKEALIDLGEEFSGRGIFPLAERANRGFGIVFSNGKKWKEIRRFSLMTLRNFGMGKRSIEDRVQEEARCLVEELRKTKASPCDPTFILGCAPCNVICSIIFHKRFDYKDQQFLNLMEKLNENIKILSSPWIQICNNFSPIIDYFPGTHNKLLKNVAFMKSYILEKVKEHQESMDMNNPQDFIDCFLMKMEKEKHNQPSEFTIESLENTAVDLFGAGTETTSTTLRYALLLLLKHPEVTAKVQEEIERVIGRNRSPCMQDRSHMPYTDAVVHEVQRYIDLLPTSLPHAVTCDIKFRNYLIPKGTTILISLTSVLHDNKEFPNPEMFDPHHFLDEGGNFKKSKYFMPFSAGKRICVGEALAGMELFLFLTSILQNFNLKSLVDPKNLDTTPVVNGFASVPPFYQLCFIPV

Hepatitis B virus [42] = experiment: Antiviral activity against HBV infected in human HepG2 cells expressing NTCP assessed as viral DNA replication at 1 uM incubated for 6 days by Southern blot analysis (reference value: 100 %); type: functional; settings: time 6 day

Chain of Cytochrome P450 3A4 (P08684 whole entry): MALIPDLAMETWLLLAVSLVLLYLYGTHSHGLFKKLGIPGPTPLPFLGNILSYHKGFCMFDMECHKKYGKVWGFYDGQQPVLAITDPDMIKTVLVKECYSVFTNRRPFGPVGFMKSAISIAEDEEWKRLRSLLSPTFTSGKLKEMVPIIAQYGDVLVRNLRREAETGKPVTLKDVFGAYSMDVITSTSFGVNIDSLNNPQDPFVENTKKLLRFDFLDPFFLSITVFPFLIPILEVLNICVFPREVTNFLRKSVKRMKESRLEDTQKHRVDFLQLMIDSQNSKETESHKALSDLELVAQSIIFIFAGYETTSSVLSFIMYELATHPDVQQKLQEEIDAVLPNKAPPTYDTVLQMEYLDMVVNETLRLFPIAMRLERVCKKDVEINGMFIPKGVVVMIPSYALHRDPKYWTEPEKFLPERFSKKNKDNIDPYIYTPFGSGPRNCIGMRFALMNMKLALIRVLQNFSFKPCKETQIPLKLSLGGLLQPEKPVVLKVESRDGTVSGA

SMILES: Nc1cc(F)c(S(=O)(=O)NC2COC2)cc1C(=O)Nc1ccc(F)c(C(F)F)c1
- fraction unbound [1]: 0.128
- remaining at 4 h [2]: 94.5%
- IC50 (Cytochrome P450 3A4): > 100 µM
- IC50 [3]: > 100 µM
- Activity [4]: Active
- Cmax [5]: 370 ng/mL
- Tmax [6]: 15 min
- IC50 [7]: > 100 µM
- IC50 [8]: > 100 µM
- fold change (FC) (Hepatitis B virus [9]): 16
- IC50 (Cytochrome P450 1A2): > 100 µM
- bioavailability [10]: 66.2%
- IC50 [11]: > 100 µM
- selectivity ratio [12]: > 17500
- half-life [13]: 52.2 min
- remaining at 0.5 h [14]: 56.8%
- remaining at 0.5 h [15]: 45.4%
- half-life [16]: 576 min
- AUC(0-inf) [17]: 5460 ng·h/mL
- Vd [18]: 46.5 L/kg
- AUC(0-inf) [19]: 280 ng·h/mL
- CC50 [20]: > 100 µM
- IC50 [21]: > 100 µM
- fraction unbound [22]: 0.143
- Ratio (Hepatitis B virus [23]): 6%
- IC50 (Cytochrome P450 2D6): > 100 µM
- EC50 (Hepatitis B virus [24]): 0.02 µM
- AUC(0-t) [25]: 560 ng·h/mL
- bioavailability [26]: 5.89%
- half-life [27]: 55.2 min
- Activity [28]: 8.62 mL
- IC50 (Cytochrome P450 2C19): > 100 µM
- Activity (Hepatitis B virus [29]): 14%
- Activity (HepG2): No effect
- half-life [30]: 533 min
- CC50 [31]: > 900 µM
- clearance [32]: 65.5 mL/min/kg
- AUC(0-t) [33]: 850 ng·h/mL
- remaining at 0.5 h [34]: > 100%
- AUC(0-inf) [35]: 900 ng·h/mL
- selectivity ratio [36]: 3160
- CC50 [37]: 63.2 µM
- clearance [38]: 92.7 mL/min/kg
- Vd [39]: 29.1 L/kg
- EC50 (Hepatitis B virus [40]): 0.1 µM
- Cmax [41]: 540 ng/mL
- IC50 (Cytochrome P450 2C9): > 100 µM
- Activity (Hepatitis B virus [42]): 6%

Source: ChEMBL document CHEMBL6177968, “Development of sulfamoylbenzamide-based capsid assembly modulators for hepatitis B virus capsid assembly” (Eur J Med Chem, 2025)
